Data as given in publication PMC7248105, “Photoinduced monooxygenation involving NAD(P)H-FAD sequential single-electron transfer” (Nature Communications, 2020).

Experiments:
PqsL [1] = biological target: T1, PqsL (Pseudomonas aeruginosa, UniProt Q9HWJ1); experiment: X-ray crystal structure with FAD and 2-ABA; KD by fluorescence spectroscopy; format: binding
T1 construct: final models contain residues 3–370

PqsL [2] = biological target: T2, PqsL (Pseudomonas aeruginosa, UniProt Q9HWJ1, P273A); experiment: FAD binding affinity (fluorescence spectroscopy)
T2 sequence (Q9HWJ1 1-398 P273A): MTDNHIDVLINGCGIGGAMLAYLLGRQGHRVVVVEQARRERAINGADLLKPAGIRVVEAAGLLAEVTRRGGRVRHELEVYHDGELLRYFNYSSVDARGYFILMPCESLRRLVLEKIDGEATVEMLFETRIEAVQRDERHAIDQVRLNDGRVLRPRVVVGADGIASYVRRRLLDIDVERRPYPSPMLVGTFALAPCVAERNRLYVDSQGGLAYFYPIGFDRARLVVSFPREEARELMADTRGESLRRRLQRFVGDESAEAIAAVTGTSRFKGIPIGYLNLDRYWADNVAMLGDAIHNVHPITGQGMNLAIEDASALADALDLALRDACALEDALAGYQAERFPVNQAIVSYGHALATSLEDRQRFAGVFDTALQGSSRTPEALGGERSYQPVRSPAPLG

PqsL-Q = biological target: T3, PqsL-Q (Pseudomonas aeruginosa, UniProt Q9HWJ1, C105G/G45R/I43R/R41Y); experiment: FAD fluorescence polarization; X-ray crystal structure; format: binding
T3 construct: final models contain residues 3–370
T3 sequence (Q9HWJ1 1-398 R41Y/I43R/G45R/C105G): T2 sequence (Q9HWJ1 1-398 P273A)

PqsL [3] = biological target: T1, PqsL; experiment: as above; format: binding
[4] = test system: NC(=O)C1=CN([C@@H]2O[C@H](COP(=O)(O)OP(=O)(O)OC[C@H]3O[C@@H](n4cnc5c(N)ncnc54)[C@H](O)[C@@H]3O)[C@@H](O)[C@H]2O)C=CC1; experiment: purified protein; conditions: FAD
[5] = test system: NC(=O)C1=CN([C@@H]2O[C@H](COP(=O)(O)OP(=O)(O)OC[C@H]3O[C@@H](n4cnc5c(N)ncnc54)[C@H](OP(=O)(O)O)[C@@H]3O)[C@@H](O)[C@H]2O)C=CC1; experiment: purified protein; conditions: FAD
[6] = biological target: the molecule itself; experiment: SEC; analytical gel filtration, Superdex 200 Increase 10/300 GL, 20 mM tris-HCl pH 8.5 without NaCl, 12 °C, calibrated with Bio-Rad standard

Nc1ccccc1C(=O)CC(=O)O [2-ABA, 2-aminobenzoylacetate]
Kd (PqsL [1]): 38.4 ± 3.98 µM

Cc1cc2nc3c(=O)[nH]c(=O)nc-3n(C[C@H](O)[C@H](O)[C@H](O)COP(=O)(O)OP(=O)(O)OC[C@H]3O[C@@H](n4cnc5c(N)ncnc54)[C@H](O)[C@@H]3O)c2cc1C [FAD]
Kd (PqsL [2]): 64 µM
Kd (PqsL-Q): 0.0375 ± 0.0067 µM
Kd (PqsL [3]): 0.25 ± 0.0298 µM

PqsL (Pseudomonas aeruginosa PAO1)
Km [4]: 310.9 ± 21.6 µM
Km [5]: 157.5 ± 18.9 µM

B1: PqsL (flavoprotein monooxygenase, wild type) (enzyme, Pseudomonas aeruginosa)
chain: T2 sequence (Q9HWJ1 1-398 P273A)
notes: PqsL, FAD-dependent monooxygenase of alkyl quinolone N-oxide biosynthesis, Pseudomonas aeruginosa; the crystal models hold residues 3-370; One protomer is written; also called Wild-type PqsL; FPMO PqsL; source: E. coli LMG194 (pHERD30T), purified (Ni-NTA, Resource Q anion exchange)
stoichiometry N [6]: 2
